According to patent US8501957B2, “Benzimidazole compounds and their use as anticancer agents” (China Medical University, priority 2008, dated 2013):
One block for each molecule: values may come before it.

What was measured:
PC-3 cells [1] = test: Western blot of Bcl-2 family proteins, caspases and PARP; format: cell-based, human; conditions: 10 μM, 0 hr to 36 hrs
Experimental: Effect of benzimidazole compounds on inducing apoptosis was evaluated by testing their effect on the expression/activation of Bcl-2 family member proteins, caspases, and c-Jun N-terminal kinase (JNK). Bcl-2 family of proteins is the most important regulators of mitochondria-involved apoptotic cell death. The pro-apoptotic members, Bax, Bak and Bad, are required for the disruption of mitochondria; whereas the anti-apoptotic Bcl-2, Bcl-xL and Mcl-1 can prevent apoptosis by antagonizing the pro-apoptotic members.
PC-3 cells were incubated with a vehicle (0.1% DMSO) or Compound 55 (10 μM) for 0 hr, 6 hrs, 12 hrs, 18 hrs, 24 hrs, and 36 hrs. Then, the cells were harvested and lysed for the detection of protein expression with specific antibodies by western blot analysis. For Western blotting, the proteins (40 μg) in the lysis (including Phospho-Bcl-2, Bcl-2, Phospho-Bcl-xL, Bcl-xL, Mcl-1, Bax, Bak, Bad, GAPDH, cleaved Bad, Caspase-9, cleaved Caspase-9, Caspase-3, cleaved Caspase-3, poly-(ADP-ribose) polymerase (PARP), cleaved PARP, and GAPDH) were separated by electrophoresis in a 10 to 15% polyacrylamide gel, transferred to a nitrocellulose membrane and immuno-reacted with specific antibodies.

[2] = tested on: human non-small cell lung cancer A549 cells; test: SRB assay, A549 cells; format: cell-based; conditions: SRB growth inhibition, 48 hrs or 72 hrs
Experimental: (§1) NCI/ADR-RES cell line was obtained from DTP Human Tumor Cell Line Screen (Developmental Therapeutics Program, NCI). Other cancer cell lines (A549, Hep G2, Hep 3B, DU-145, LNCaP, and PC-3) were obtained from American Type Culture Collection (Rockville, Md.). These cancer cells were cultured in RPMI1640 medium with 10% (v/v) fetal bovine serum (FBS) and penicillin (100 units/mL)/streptomycin (100 μg/mL). Cultures were maintained in a humidified incubator at 37° C. in 5% CO2/95% air.
(§2) Cells were seeded in 96-well plates in medium with 5% FBS for 24 hrs. They were then further incubated with a vehicle (0.1% DMSO) as control or a test compound for 48 hrs or 72 hrs. The control- or compound-treated cells were fixed with 10% TCA and stained with SRB at 0.4% (w/v) in 1% acetic acid. Unbound SRB was washed off by 1% acetic acid and SRB-bound cells were solubilized with 10 mM Trizma base.
(§3) Using an absorbance (515 nm) measurement, the amounts of cellular proteins indicating cell numbers at time zero (T0), in control (C), and in the presence of the test compound (Tx) were obtained. The percentage growth was calculated at each of the compound concentration levels. Percentage growth inhibition was calculated as: 100−[(Tx−T0)/(C−T0)]×100. […]

PC-3 cells [3] = test: In situ tubulin assay (immunofluorescence microscopy); format: cell-based, human; conditions: 18 to 24 h
Experimental: The organization and formation of microtubule were detected by immunofluorescence microscopic examination in PC-3 cells.
PC-3 cells were seeded in 8-well chamber slides and incubated with a vehicle (0.1% DMSO, control), Compound 55 (10 μM), taxol (0.1 μM), or vincristine (0.1 μM) for 18 to 24 h. Then, the cells were fixed with 100% methanol at −20° C. for 5 min and incubated in 1% bovine serum albumin (BSA) containing 0.1% Triton X-100 at 37° C. for 30 min. Cells were then washed twice with PBS for 5 min and stained with primary antibody specific to β-tubulin at 37° C. for 1 h. Afterwards, FITC-labeled secondary antibodies were used (staining performed at 37° C. for 40 min, green fluorescence) and the protein was detected using a confocal laser microscopic system (Leica TCS SP2). The nuclei were visible by DAPI staining (1 mg/mL DAPI, blue fluorescence).

Tubulin proteins = test: In vitro tubulin turbidity assay; format: biochemical; conditions: 37° C., 60 min
Experimental: Effects of the benzimidazole compounds on tubulin polymerization were detected using CytoDYNAMIX Screen 03 kit (Cytoskeleton, Inc., Denver, Colo.).
Tubulin proteins (>99% purity) were suspended in G-PEM buffer containing 80 mM PIPES, 2 mM MgCl2, 0.5 mM EDTA, and 1.0 mM GTP (pH 6.9) and 5% glycerol with or without a test compound. Then, the mixture was transferred to a 96-well plate and the absorbance was measured at 340 nm (37° C.) for 60 min (SpectraMAX Plus, Molecular Devices Inc., Sunnyvale, Calif.).
Level of tubulin polymerization was determined by examining turbidity of the tubulin suspension. Absorbance of the suspension at 340 nm was plotted as a function of time. Accordingly, the velocity and magnitude of tubulin polymerization were determined.

PC-3 cells [4] = test: Western blot analysis of cell-cycle regulators; format: cell-based, human; conditions: 10 μM
Experimental: (§4) PC-3 cells were incubated with a vehicle (0.1% DMSO) as control or Coumpound 55 (10 μM) for 30 min, 45 min, 60 min, and 120 min for testing Ras; or for 6 hrs, 12 hrs, 18 hrs, and 24 hrs for testing Raf-1, Phospho-MEK, MEK, and GAPDH. After the treatment, cells were washed twice with ice-cold PBS and then lysed with 100 μL lysis buffer (20 mM Tris, pH 7.5, 1 mM MgCl2, 125 mM NaCl, 1% Triton X-100, 1 mM phenylmethylsulphonylfluoride, 10 μg/mL leupeptin, 10 μg/mL aprotinin, 25 mM β-glycerophosphate, 50 mM NaF, and 100 μM sodium orthovanadate). Then, the expressions of the above proteins were detected by Western blotting.
The cell-cycle regulators were also examined by Western blot analysis. Proteins in the lysis (40 μg) were separated by electrophoresis in a 10 or 15% polyacrylamide gel, transferred to a nitrocellulose membrane and immuno-reacted with respective antibodies against Cyclin E, Cyclin A, Cyclin B1, Cdk1, Cdk2, p27, MPM2, and GAPDH.

[5] = tested on: hepatocellular carcinoma Hep3B cells; test: SRB assay, Hep3B cells; format: cell-based; conditions: Homo sapiens, SRB growth inhibition, 48 hrs or 72 hrs
Experimental: as §1, §2, §3

[6] = tested on: P-glycoprotein (P-gp)-rich breast cancer NCI/ADR-RES cells; test: SRB assay, NCI/ADR-RES cells; format: cell-based; conditions: Homo sapiens, SRB growth inhibition, 48 hrs or 72 hrs
Experimental: as §1, §2, §3

PC-3 cells [7] = test: FACScan flow cytometric analysis of cell cycle; format: cell-based, human; conditions: 1 μM, 3 μM, and 10 μM, 0 hr to 48 hrs
Experimental: PC-3 cells were treated with Compound 55 (at different concentrations: 1 μM, 3 μM, and 10 μM) for 0 hr, 6 hrs, 12 hrs, 18 hrs, 24 hrs, 36 hrs, and 48 hrs. After treatment, cells were washed twice with ice-cold PBS, collected by centrifugation and fixed in 70% (v/v) ethanol at 4° C. for 30 min. Then, cells were treated with 0.2 ml of a buffer (containing 0.2 M Na2HPO4 and 0.1 M citric acid buffer, pH 7.8) for 30 min, centrifuged, and then incubated in 1 mL propidium iodide (PI) staining buffer (0.1% Triton X-100, 100 μg/mL RNase A, 80 μg/mL propidium iodide in PBS) at 37° C. for 30 min. Cells were detected using a cytofluorometer, and analyzed by FACScan and CellQuest program (Becton Dickinson).

DU-145 cells = test: SRB assay, DU-145 cells; format: cell-based; conditions: Homo sapiens, SRB growth inhibition, 48 hrs or 72 hrs
Experimental: as §1, §2, §3

LNCaP cells = test: SRB assay, LNCaP cells; format: cell-based; conditions: Homo sapiens, SRB growth inhibition, 48 hrs or 72 hrs
Experimental: as §1, §2, §3

[8] = tested on: hepatocellular carcinoma HepG2 cells; test: SRB assay, HepG2 cells; format: cell-based; conditions: Homo sapiens, SRB growth inhibition, 48 hrs or 72 hrs
Experimental: as §1, §2, §3

[9] = tested on: prostate cancer PC-3 cells; test: SRB assay, PC-3 cells; format: cell-based; conditions: Homo sapiens, SRB growth inhibition, 48 hrs or 72 hrs
Experimental: as §1, §2, §3

PC-3 cells [10] = test: Western blotting of Ras, Raf-1, MEK; format: cell-based, human; conditions: 10 μM
Experimental: as §4

IC50 [2]: 2400 nM
IC50 [5]: 2400 nM
IC50 [6]: 3700 nM
IC50 (DU-145 cells): 2300 nM
IC50 (LNCaP cells): 1700 nM
IC50 [8]: 3300 nM
IC50 [9]: 2300 nM
Structure (SMILES): COc1cc(Cn2c(-c3ccccc3)nc3cc(N4CCCC4)ccc32)cc(OC)c1OC [Compound 55, 2-phenyl-5-(pyrrolidin-1-yl)-1-(3,4,5-trimethoxybenzyl)-1H-benzo[d]imidazole]
Bcl-2 phosphorylation and degradation (PC-3 cells [1]): induced the phosphorylation and degradation
Bcl-xL phosphorylation and degradation (PC-3 cells [1]): induced the phosphorylation and degradation
Mcl-1 expression (PC-3 cells [1]): decrease
PARP cleavage (PC-3 cells [1]): cleaved to produce catalytically active fragments
caspase-3 cleavage (PC-3 cells [1]): cleaved to produce catalytically active fragments
caspase-9 cleavage (PC-3 cells [1]): cleaved to produce catalytically active fragments
cleavage of pro-apoptotic Bad (PC-3 cells [1]): cleavage of pro-apoptotic Bad into 15-kDa fragments was unexpectedly induced
spindle and nuclei morphology (in situ labeling of tubulin and chromosomes) (PC-3 cells [3]; 10 μM): mono-polar
tubulin polymerization (turbidity, absorbance at 340 nm) (Tubulin proteins): inhibited tubulin polymerization in a dose-dependent manner
cyclin A expression (PC-3 cells [4]): downregulated
cyclin B1 expression (PC-3 cells [4]): upregulated
cyclin E expression (PC-3 cells [4]): downregulated
expression of p27 (a Cdk inhibitor) (PC-3 cells [4]): decreased
cell population at G2/M phase (PC-3 cells [7]): induced an increase
hypodiploid (sub-G1, apoptosis) population of the cell cycle (PC-3 cells [7]): subsequent increase
Ras expression (PC-3 cells [10]; 30 min to 120 min): upregulated
MEK expression (PC-3 cells [10]; 6 hrs to 24 hrs): upregulated
Raf-1 expression (PC-3 cells [10]; 6 hrs to 24 hrs): upregulated

Structure (SMILES): CC(=O)O[C@H]1C(=O)[C@@]2(C)[C@H]([C@H](OC(=O)c3ccccc3)[C@]3(O)C[C@H](OC(=O)[C@H](O)[C@@H](NC(=O)c4ccccc4)c4ccccc4)C(C)=C1C3(C)C)[C@]1(OC(C)=O)CO[C@@H]1C[C@@H]2O [taxol]
spindle and nuclei morphology (in situ labeling of tubulin and chromosomes) (PC-3 cells [3]; 0.1 μM): multi-polar spindles and multiple nuclei were formed

Structure (SMILES): CC[C@]1(O)C[C@H]2CN(CCc3c([nH]c4ccccc34)[C@@](C(=O)OC)(c3cc4c(cc3OC)N(C=O)[C@H]3[C@@](O)(C(=O)OC)[C@H](OC(C)=O)[C@]5(CC)C=CCN6CC[C@]43[C@@H]65)C2)C1 [vincristine]
spindle and nuclei morphology (in situ labeling of tubulin and chromosomes) (PC-3 cells [3]; 0.1 μM): multi-polar spindles and chromosome condensation were observed
